Results: PMC7516806, “Hybrid Antimicrobial Peptide Targeting Staphylococcus aureus and Displaying Anti-infective Activity in a Murine Model” (Frontiers in Microbiology, 2020)
No end group written: not given here.

Assays:
E. coli UB1005 = test: MIC, modified microtiter dilution; format: cell-based, Escherichia coli; conditions: MHB, 2–7 × 10^5 CFU/ml, 37°C, 24 h, no turbidity, at least three independent repeats
From the text: (§1) The experiment was repeated at least three times independently.

E. coli 25922 = test: MIC, modified microtiter dilution; format: cell-based, Escherichia coli; conditions: MHB, 2–7 × 10^5 CFU/ml, 37°C, 24 h, lowest concentration with no turbidity, at least three independent repeats
From the text: as §1

S. aureus 29213 [1] = test: MIC, modified microtiter dilution; format: cell-based, Staphylococcus aureus; conditions: MHB, 2–7 × 10^5 CFU/ml, 37°C, 24 h, no turbidity, at least three independent repeats
From the text: as §1

S. aureus 25923 = test: MIC, modified microtiter dilution; format: cell-based, Staphylococcus aureus; conditions: MHB, 2–7 × 10^5 CFU/ml, 37°C, 24 h, no turbidity, at least three independent repeats
From the text: as §1

L. plantarum 8014 = test: MIC, modified microtiter dilution; format: cell-based, Lactobacillus plantarum; conditions: 2–7 × 10^5 CFU/ml, 37°C, 24 h, no turbidity, at least three independent repeats
From the text: as §1

S. aureus 29213 [2] = test: MIC in the presence of physiological salts; format: cell-based, Staphylococcus aureus; conditions: three independent repeats, unit not given in Table 4
Experimental: as §1
The MIC of peptides was determined in the presence of salts at physiological concentrations (150 mM NaCl, 4.5 mM KCl, 6 μM NH4Cl, 8 μM ZnCl2, 1 mM MgCl2, 2 mM CaCl2, and 4 μM FeCl3) as described previously ([Dong et al., 2014]). All experiments were performed three times independently.

[3] = test system: human red blood cells (hRBCs); test: Hemolysis assay; format: cell-based; conditions: 1.5 h, 37°C, absorbance 570 nm; 0.1% Triton X-100 positive control
Experimental: The cytotoxicity of peptides was determined by healthy human erythrocytes and the murine macrophage cell line RAW 264.7 via a hemolysis assay and MTT dye reduction assay, respectively ([Wang et al., 2018]). In the hemolysis assay, fresh hRBCs from healthy people were centrifuged for 5 min at 1,000 × g and then washed three times with PBS (pH = 7.2). The 100 μL erythrocyte suspension and peptides were incubated for 1.5 h in an incubator at 37°C. The 96-well plates were centrifuged at 1,000 × g for 5 min, and the supernatants were carefully aspirated. The absorbance at 570 nm indicated the leakage of hemoglobin. The hRBCs in the PBS sample was used as the negative control, and 0.1% Triton X-100 addition served as the positive control. In the MTT dye reduction assay, 1.0–2.0 × 10^5 cells were plated in 96-well plates and then treated with various concentrations of peptides for 4 h at 37°C in a 5% CO2 incubator. Subsequently, 50 μL of MTT was added to the plated cells at a final concentration of 0.5 mg/mL and incubated for 4 h. Then, the cells were centrifuged at 1000 × g for 5 min, and the supernatants were discarded. Formazan crystals were dissolved in 150 μL of DMSO, and the OD570 nm was measured using a microplate reader (TECAN GENios F129004; TECAN, Austria). The experiment was repeated three times independently.

P. aeruginosa 27853 = test: MIC, modified microtiter dilution; format: cell-based, Pseudomonas aeruginosa; conditions: MHB, 2–7 × 10^5 CFU/ml, 37°C, 24 h, no turbidity, at least three independent repeats
From the text: as §1

L. rhamnosus 1.0385 = test: MIC, modified microtiter dilution; format: cell-based, Lactobacillus rhamnosus; conditions: 2–7 × 10^5 CFU/ml, 37°C, 24 h, no turbidity, at least three independent repeats
From the text: as §1

L. rhamnosus 7469 = test: MIC, modified microtiter dilution; format: cell-based, Lactobacillus rhamnosus; conditions: 2–7 × 10^5 CFU/ml, 37°C, 24 h, no turbidity, at least three independent repeats
From the text: as §1

L. rhamnosus 1.0911 = test: MIC, modified microtiter dilution; format: cell-based, Lactobacillus rhamnosus; conditions: 2–7 × 10^5 CFU/ml, 37°C, 24 h, no turbidity, at least three independent repeats
From the text: as §1

L. rhamnosus 1.0936 = test: MIC, modified microtiter dilution; format: cell-based, Lactobacillus rhamnosus; conditions: 2–7 × 10^5 CFU/ml, 37°C, 24 h, no turbidity, at least three independent repeats
From the text: as §1

S. pullorum 7913 = test: MIC, modified microtiter dilution; format: cell-based, Salmonella pullorum; conditions: MHB, 2–7 × 10^5 CFU/ml, 37°C, 24 h, no turbidity, at least three independent repeats
From the text: as §1

S. typhimurium 7731 = test: MIC, modified microtiter dilution; format: cell-based, Salmonella typhimurium; conditions: MHB, 2–7 × 10^5 CFU/ml, 37°C, 24 h, no turbidity, at least three independent repeats
From the text: as §1

S. typhimurium 14028 = test: MIC, modified microtiter dilution; format: cell-based, Salmonella typhimurium; conditions: MHB, 2–7 × 10^5 CFU/ml, 37°C, 24 h, no turbidity, at least three independent repeats
From the text: as §1

E. coli K99 = conditions: MHB, 2–7 × 10^5 CFU/ml, 37°C, 24 h, no turbidity, at least three independent repeats
From the text: (§2) The bacterial strains Escherichia coli (E. coli) ATCC 25922, E. coli K88, E. coli K99, Pseudomonas aeruginosa (P. aeruginosa) ATCC 27853, Escherichia coli (E. coli) UB1005, Salmonella typhimurium 14028, Salmonella pullorum (S. pullorum) C7913, S. typhimurium C7731, S. aureus ATCC 29213, MRSA ATCC 43300, and S. aureus ATCC 25923 were obtained from the College of Veterinary Medicine, Northeast Agricultural University, China. Lactobacillus plantarum (L. plantarum) 8014, Lactobacillus rhamnosus (L. rhamnosus) 7469, L. rhamnosus 1.0911, L. rhamnosus 1.0936, and L. rhamnosus 1.0385 were obtained from the Key Laboratory of Food College, Northeast Agricultural University, China.
(§3) As in a previous study, the antimicrobial activities of the AMPs were investigated using a modified standard microtiter dilution method ([Dong et al., 2014]). The peptides were serially diluted with a solution containing 0.01% acetic acid and 0.2% bovine serum albumin (BSA, Sigma) in 96-well plates. The bacteria grew to the mid-log phase and then were dissolved in MHB at concentration of 2–7 × 10^5 CFU/ml. The peptides and bacterial solution were mixed in equal volume in a 37°C incubator for 24 h. […] Mueller-Hinton broth with microorganisms was used as the positive control, and the pure broth was used as the negative control. The experiment was repeated at least three times independently.

E. coli K88 = conditions: MHB, 2–7 × 10^5 CFU/ml, 37°C, 24 h, no turbidity, at least three independent repeats
From the text: as §2, §3

MRSA 43300 = format: cell-based, Staphylococcus aureus; conditions: MHB, 2–7 × 10^5 CFU/ml, 37°C, 24 h, no turbidity, at least three independent repeats
From the text: as §1

## RWWWLL-NH2 [Peptide S7]
E. coli UB1005
  MIC E. coli UB1005: 16 µM
E. coli 25922
  MIC E. coli 25922: 16 µM
S. aureus 29213 [1]
  MIC S. aureus 29213: 8 µM
S. aureus 25923
  MIC S. aureus 25923: 8 µM
L. plantarum 8014
  MIC L. plantarum 8014: >64 µM
S. aureus 29213 [2]; 4 μM FeCl3
  MIC against S. aureus 29213, FeCl3: 8 µM
S. aureus 29213 [2]; 6 μM NH4Cl
  MIC against S. aureus 29213, NH4Cl: 8 µM
S. aureus 29213 [2]; 8 μM ZnCl2
  MIC against S. aureus 29213, ZnCl2: 4 µM
S. aureus 29213 [2]; 1 mM MgCl2
  MIC against S. aureus 29213, MgCl2: 8 µM
S. aureus 29213 [2]; 2 mM CaCl2
  MIC against S. aureus 29213, CaCl2: 16 µM
S. aureus 29213 [2]; 4.5 mM KCl
  MIC against S. aureus 29213, KCl: 8 µM
S. aureus 29213 [2]; 150 mM NaCl
  MIC against S. aureus 29213, NaCl: 8 µM
[3]
  hemolytic activity against hRBCs: barely exhibited hemolysis effects
P. aeruginosa 27853
  MIC P. aeruginosa 27853: >64 µM
L. rhamnosus 1.0385
  MIC L. rhamnosus 1.0385: >64 µM
L. rhamnosus 7469
  MIC L. rhamnosus 7469: >64 µM
L. rhamnosus 1.0911
  MIC L. rhamnosus 1.0911: >64 µM
L. rhamnosus 1.0936
  MIC L. rhamnosus 1.0936: >64 µM
S. pullorum 7913
  MIC S. pullorum 7913: >64 µM
S. typhimurium 7731
  MIC S. typhimurium 7731: 16 µM
S. typhimurium 14028
  MIC S. typhimurium 14028: 32 µM
E. coli K99
  MIC E. coli K99: 16 µM
E. coli K88
  MIC E. coli K88: 16 µM
MRSA 43300
  MIC MRSA 43300: 8 µM
